This note sets out measurements from US10246486B2, “Macrocyclic inhibitors of flaviviridae viruses” (Gilead Sciences, Inc., priority 2012, dated 2019).

For one experiment, the target named is cyclophilin A (Homo sapiens, UniProt P62937). As to the kind of experiment: biochemical.
Experiment [1] deals with HCV replicon 1a (human hepatoma Huh-7 cell line harboring a HCV replicon). As to the kind of experiment: microbe, parasite or virus in culture. The class given is cell-based.

cyclophilin A, sequence (P62937 whole entry, species assumed): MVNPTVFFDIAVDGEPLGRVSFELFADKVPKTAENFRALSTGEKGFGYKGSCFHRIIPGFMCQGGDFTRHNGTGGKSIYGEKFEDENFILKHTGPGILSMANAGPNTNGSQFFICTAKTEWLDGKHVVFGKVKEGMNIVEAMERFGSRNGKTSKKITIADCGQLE

The molecule `CC(C)[C@@H]1NC(=O)[C@@H]([C@H](C)O)/C=C/c2ccc3ccc(nc3c2)[C@@H](C)OC(=O)[C@@H]2CCCN(N2)C(=O)[C@H](C)NC1=O` [Example 31] returned an IC50 on cyclophilin A of under 0.1 µM.

With `C[C@@H]1NC(=O)[C@H](CCn2ccnn2)NC(=O)C(C)(C)/C=C/c2cc3cc(ccc3cn2)[C@@H](C)OC(=O)[C@@H]2CCCN(N2)C1=O` [Example 50], in experiment [1], the “Replicon 1a % inhibition at 1 μm” value came to 12%.

Take `CC(C)[C@@H]1NC(=O)C(C)(C)c2cccc(c2)-c2cc3cc(ccc3cn2)[C@@H](C)OC(=O)[C@@H]2CCCN(N2)C(=O)[C@H](C)NC1=O` [Compound 67]: in experiment [1] (Hepatitis C virus, Huh-7, 72 h, read-out: Replicon 1a % inhibition at 1 μm), the inhibition at 1 µM was determined as 97%.

As to `C[C@@H]1NC(=O)[C@H](CCn2cc(CO)nn2)NC(=O)C(C)(C)/C=C/c2cc3cc(ccc3cn2)[C@@H](C)OC(=O)[C@@H]2CCCN(N2)C1=O` [Compound 72], the “Replicon 1a % inhibition at 1 μm” value in experiment [1] worked out at 0%.

`CC(C)[C@@H]1NC(=O)/C=C\c2cc3cc(ccc3cn2)[C@@H](C)NC(=O)[C@@H]2CCCN(N2)C(=O)[C@H](C)NC1=O` [Example 12] yielded an IC50 against cyclophilin A of 1 to 10 µM.
